Test results taken from patent publication US20030225152A1, “3-(Arylamino)methylene-1, 3-dihydro-2h-indol-2-ones as kinase inhibitors” (priority 2001, published 2003).

How the values were obtained:
[1] = target: T1, cytoplasmic domain of the human VEGF receptor (VEGFR-2) (Homo sapiens, UniProt P35968); experiment: KDR Assay; type: biochemical; conditions: His-VEGFR-2; 3.6 μM ATP
T1 construct: The cytoplasmic domain of the human VEGF receptor (VEGFR-2) was expressed as a Histidine-tagged fusion protein; Histidine tag
Protocol: The cytoplasmic domain of the human VEGF receptor (VEGFR-2) was expressed as a Histidine-tagged fusion protein following infection of insect cells using an engineered baculovirus. His-VEGFR-2 was purified to homogeneity, as determined by SDS-PAGE, using nickel resin chromatography. Kinase assays were performed in 96 well microtiter plates that were coated overnight with 30 μg of poly-Glu-Tyr (4:1) in 10 mM Phosphate Buffered Saline (PBS), pH 7.2-7.4. The plates were incubated with 1% BSA and then washed four times with PBS prior to starting the reaction. Reactions were carried out in 120 μL reaction volumes containing 3.6 μM ATP in kinase buffer (50 mM Hepes buffer pH 7.4, 20 mM MgCl2, 0.1 mM MnCl2 and 0.2 mM Na3VO4). Test compounds were reconstituted in 100% DMSO and added to the reaction to give a final DMSO concentration of 5%. Reactions were initiated by the addition 0.5 ng of purified protein. Following a ten minute incubation at 25° C., the reactions were washed four times with PBS containing 0.05% Tween-20. 100 μl of a monoclonal anti-phosphotyrosine antibody-peroxidase conjugate was diluted 1:10000 in PBS-Tween-20 and added to the wells for 30 minutes. Following four washes with PBS-Tween-20, 100 μl of O-phenylenediamine Dihydrochloride in Phosphate-citrate buffer, containing urea hydrogen peroxide, was added to the wells for 7 minutes as a colorimetric substrate for the peroxidase. The reaction was terminated by the addition of 100 μl of 2.5N H2SO4 to each well and read using a microplate ELISA reader set at 492 nm. IC50 values for compound inhibition were calculated directly from graphs of optical density (arbitrary units) versus compound concentration following subtraction of blank values.

[2] = tested on: VEGF induced increases in intracellular calcium levels in HUVEC (human umbilical vein endothelial cells); experiment: VEGF Stimulated Ca++ Signal in vitro (FLIPR); type: cell-based; conditions: Homo sapiens, 0.01 to 10.0 μM, VEGF 5 ng/mL
Protocol: VEGF Stimulated Ca^++ Signal in vitro
Automated FLIPR (Fluorometric Imaging Plate Reader) technology was used to screen for inhibitors of VEGF induced increases in intracellular calcium levels in fluorescent dye loaded endothelial cells. HUVEC (human umbilical vein endothelial cells) (Clonetics) were seeded in 96-well fibronectin coated black-walled plates overnight at 37° C./5%CO2. Cells were loaded with calcium indicator Fluo-4 for 45 minutes at 37° C. Cells were washed 4 times (Original Cell Wash, Labsystems) to remove extracellular dye. Test compounds were reconstituted in 100% DMSO and added to the cells to give a final DMSO concentration of 0.1%. For screening, cells were pre-incubated with test agents for 30 minutes, at a single concentration (10 μM) or at concentrations ranging from 0.01 to 10.0 μM followed by VEGF stimulation (5 ng/mL). Changes in fluorescence at 516 nm were measured simultaneously in all 96 wells using a cooled CCD camera. Data were generated by determining max-min fluorescence levels for unstimulated, stimulated, and drug treated samples. IC50 values for test compounds were calculated from % inhibition of VEGF stimulated responses in the absence of inhibitor.

T1 sequence (P35968 786-1356): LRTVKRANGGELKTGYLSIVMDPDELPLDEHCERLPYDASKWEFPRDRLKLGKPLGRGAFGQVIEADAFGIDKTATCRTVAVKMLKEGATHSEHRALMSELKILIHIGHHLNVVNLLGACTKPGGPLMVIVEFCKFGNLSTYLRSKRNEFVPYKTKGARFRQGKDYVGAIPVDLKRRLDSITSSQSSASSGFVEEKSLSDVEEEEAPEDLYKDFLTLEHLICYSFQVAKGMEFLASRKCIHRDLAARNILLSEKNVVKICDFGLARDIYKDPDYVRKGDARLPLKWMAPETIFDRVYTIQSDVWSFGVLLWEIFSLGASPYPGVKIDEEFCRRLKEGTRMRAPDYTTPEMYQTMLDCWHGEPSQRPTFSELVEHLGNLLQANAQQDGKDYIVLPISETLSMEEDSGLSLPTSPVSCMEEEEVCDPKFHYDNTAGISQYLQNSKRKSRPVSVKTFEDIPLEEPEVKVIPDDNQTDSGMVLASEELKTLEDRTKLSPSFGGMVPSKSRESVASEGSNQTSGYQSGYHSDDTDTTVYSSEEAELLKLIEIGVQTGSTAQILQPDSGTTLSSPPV

Row | IC50 [1] [nM] | Structure (SMILES) | IC50 [2] [nM]
1 | 140 | O=C1Nc2ccccc2C1=CNc1ccc(CN2CCCCC2)cc1 [Example 251, 3-[(4-Piperidin-1-ylmethyl-phenylamino)-methylene]-1,3-dihydro-indol-2-one] | –
2 | 150 | Cc1cccc2c1C(=CNc1ccc(OCCN3CCCCC3)cc1)C(=O)N2 [Example 252, 4-Methyl-3-{[4-(2-piperidin-1-yl-ethoxy)-phenylamino]-methylene}-1,3-dihydro-indol-2-one] | –
3 | 170 | O=C1Nc2cc(F)ccc2C1=CNc1ccc(OCCN2CCCCC2)cc1 [Example 253, 6-Fluoro-3-{[4-(2-piperidin-1-yl-ethoxy)-phenylamino]-methylene}-1,3-dihydro-indol-2-one] | –
4 | 500 | O=C1Nc2ccccc2C1=CNc1ccc(OCCN2CCCCC2)cc1 [Example 254, 3-{[4-(2-Piperidin-1-yl-ethoxy)-phenylamino]-methylene}-1,3-dihydro-indol-2-one] | –
5 | 300 | O=C1Nc2cc(F)ccc2C1=CNc1ccc(CN2CCCCC2)cc1 [Example 259, 6-Fluoro-3-[(4-piperidin-1-ylmethyl-phenylamino)-methylene]-1,3-dihydro-indol-2-one] | –
6 | 360 | O=C1Nc2ccc(F)cc2C1=CNc1ccc(OCCN2CCCCC2)cc1 [Example 263, 5-Fluoro-3-{[4-(2-piperidin-1-yl-ethoxy)-phenylamino]-methylene}-1,3-dihydro-indol-2-one] | –
7 | 70 | CCN(CC)CCOc1ccc(NC=C2C(=O)Nc3cccc(C)c32)cc1 [Example 264, 3-{[4-(2-Diethylamino-ethoxy)-phenylamino]-methylene}-4-methyl-1,3-dihydro-indol-2-one] | –
8 | 110 | Cc1cccc2c1C(=CNc1ccc(OCCN3CCCC3)cc1)C(=O)N2 [Example 270, 4-Methyl-3-{[4-(2-pyrrolidin-1-yl-ethoxy)-phenylamino]-methylene}-1,3-dihydro-indol-2-one] | –
9 | 460 | O=C1Nc2ccccc2C1=CNc1ccc(OCCN2CCCC2)cc1 [Example 272, 3-{[4-(2-Pyrrolidin-1-yl-ethoxy)-phenylamino]-methylene}-1,3-dihydro-indol-2-one] | –
10 | 210 | O=C1Nc2ccc(F)cc2C1=CNc1ccc(OCCN2CCCC2)cc1 [Example 274, 5-Fluoro-3-{[4-(2-pyrrolidin-1-yl-ethoxy)-phenylamino]-methylene}-1,3-dihydro-indol-2-one] | –
11 | 80 | Cc1cccc2c1C(=CNc1ccc(OCC3CCCN(C)C3)cc1)C(=O)N2 (stereo not drawn) [Example 278, 4-Methyl-3-{[4-(1-methyl-piperidin-3-ylmethoxy)-phenylamino]-methylene}-1,3-dihydro-indol-2-one] | –
12 | 160 | CN1CCCC(COc2ccc(NC=C3C(=O)Nc4cc(F)ccc43)cc2)C1 (stereo not drawn) [Example 279, 6-Fluoro-3-{[4-(1-methyl-piperidin-3-ylmethoxy)-phenylamino]-methylene}-1,3-dihydro-indol-2-one] | –
13 | 460 | CN1CCCC(COc2ccc(NC=C3C(=O)Nc4ccccc43)cc2)C1 (stereo not drawn) [Example 280, 3-{[4-(1-Methyl-piperidin-3-ylmethoxy)-phenylamino]-methylene}-1,3-dihydro-indol-2-one] | –
14 | 330 | CN1CCCC(COc2ccc(NC=C3C(=O)Nc4ccc(F)cc43)cc2)C1 (stereo not drawn) [Example 282, 5-Fluoro-3-{[4-(1-methyl-piperidin-3-ylmethoxy)-phenylamino]-methylene}-1,3-dihydro-indol-2-one] | –
15 | 250 | O=C1Nc2ccccc2C1=CNc1ccc(CCN2CCCCC2)cc1 [Example 284, 3-{[4-(2-Piperidin-1-yl-ethyl)-phenylamino]-methylene}-1,3-dihydro-indol-2-one] | –
16 | 40 | Cc1cccc2c1C(=CNc1ccc(CCN3CCCCC3)cc1)C(=O)N2 [Example 286, 4-Methyl-3-{[4-(2-piperidin-1-yl-ethyl)-phenylamino]-methylene}-1,3-dihydro-indol-2-one] | –

Row | IC50 [1] [nM] | Structure (SMILES) | IC50 [2] [nM]
17 | 330 | O=C1Nc2ccc(F)cc2C1=CNc1ccc(CCN2CCCCC2)cc1 [Example 288, 5-Fluoro-3-{[4-(2-piperidin-1-yl-ethyl)-phenylamino]-methylene}-1,3-dihydro-indol-2-one] | –
18 | 260 | O=C1Nc2cc(F)ccc2C1=CNc1ccc(CCN2CCCCC2)cc1 [Example 289, 6-Fluoro-3-{[4-(2-piperidin-1-yl-ethyl)-phenylamino]-methylene}-1,3-dihydro-indol-2-one] | –
19 | 580 | O=C1Nc2ccccc2C1=CNc1ccc(CN2CCOCC2)cc1 [Example 290, 3-[(4-Morpholin-4-ylmethyl-phenylamino)-methylene]-1,3-dihydro-indol-2-one] | –
20 | 90 | Cc1cccc2c1C(=CNc1ccc(CN3CCOCC3)cc1)C(=O)N2 [Example 292, 4-Methyl-3-[(4-morpholin-4-ylmethyl-phenylamino)-methylene]-1,3-dihydro-indol-2-one] | –
21 | 380 | O=C1Nc2ccc(F)cc2C1=CNc1ccc(CN2CCOCC2)cc1 [Example 294, 5-Fluoro-3-[(4-morpholin-4-ylmethyl-phenylamino)-methylene]-1,3-dihydro-indol-2-one] | –
22 | 180 | O=C1Nc2cc(F)ccc2C1=CNc1ccc(CN2CCOCC2)cc1 [Example 295, 6-Fluoro-3-[(4-morpholin-4-ylmethyl-phenylamino)-methylene]-1,3-dihydro-indol-2-one] | –
23 | 140 | Cc1cccc2c1C(=CNc1ccc(NCCCN3CCOCC3)cc1)C(=O)N2 [Example 296, 4-Methyl-3-{[4-(3-morpholin-4-yl-propylamino)-phenylamino]-methylene}-1,3-dihydro-indol-2-one] | –
24 | 390 | O=C1Nc2ccccc2C1=CNc1ccc(NCCCN2CCOCC2)cc1 [Example 297, 3-{[4-(3-Morpholin-4-yl-propylamino)-phenylamino]-methylene}-1,3-dihydro-indol-2-one] | –
25 | 340 | O=C1Nc2cc(F)ccc2C1=CNc1ccc(NCCCN2CCOCC2)cc1 [Example 298, 6-Fluoro-3-{[4-(3-morpholin-4-yl-propylamino)-phenylamino]-methylene}-1,3-dihydro-indol-2-one] | –
26 | 140 | O=C1Nc2ccc(Cl)cc2C1=CNc1ccc(NCCCN2CCOCC2)cc1 [Example 299, 5-Chloro-3-{[4-(3-morpholin-4-yl-propylamino)-phenylamino]-methylene}-1,3-dihydro-indol-2-one] | –
27 | 420 | O=C1Nc2ccc(F)cc2C1=CNc1ccc(NCCCN2CCOCC2)cc1 [Example 300, 5-Fluoro-3-{[4-(3-morpholin-4-yl-propylamino)-phenylamino]-methylene}-1,3-dihydro-indol-2-one] | –
28 | 620 | O=C1Nc2ccccc2C1=CNc1ccc(CCN2CCOCC2)cc1 [Example 306, 3-{[4-(2-Morpholin-4-yl-ethyl)-phenylamino]-methylene}-1,3-dihydro-indol-2-one] | –
29 | 120 | Cc1cccc2c1C(=CNc1ccc(CCN3CCOCC3)cc1)C(=O)N2 [Example 308, 4-Methyl-3-{[4-(2-morpholin-4-yl-ethyl)-phenylamino]-methylene}-1,3-dihydro-indol-2-one] | –
30 | 230 | O=C1Nc2ccc(F)cc2C1=CNc1ccc(CCN2CCOCC2)cc1 [Example 310, 5-Fluoro-3-{[4-(2-morpholin-4-yl-ethyl)-phenylamino]-methylene}-1,3-dihydro-indol-2-one] | –
31 | – | Cc1cccc2c1C(=CNc1ccc(CCCCN3CCCCC3)cc1)C(=O)N2 [Example 320, 4-Methyl-3-{[4-(4-piperidin-1-yl-butyl)-phenylamino]-methylene}-1,3-dihydro-indol-2-one] | 330
32 | – | O=C1Nc2cccc(F)c2C1=CNc1ccc(CCCCN2CCCCC2)cc1 [Example 321, 4-Fluoro-3-{[4-(4-piperidin-1-yl-butyl)-phenylamino]-methylene}-1,3-dihydro-indol-2-one] | 1180

Row | Structure (SMILES) | IC50 [1] [nM] | IC50 [2] [nM]
33 | Cc1cccc2c1C(=CNc1ccc(OCCCCN3CCCCC3)cc1)C(=O)N2 [Example 246, 4-Methyl-3-{[4-(4-piperidin-1-yl-butoxy)-phenylamino]-methylene}-1,3-dihydro-indol-2-one] | 90 | –
